Reference: patent US10463670B2, “Use of non-peptide NK1 antagonists in a predetermined dose for the treatment of cancer” (SERVICIO ANDALUZ DE SALUD, priority 2013, dated 2019)
“Also recorded” adds a separate entry of the source.

What was measured:
[1] = tested on: Human neuroblastoma KELLY; test: MTS cell proliferation, nanomolar antagonist, KELLY; type: cell-based; conditions: Aprepitant 1, 5 and 7 nM, vs cells grown in the absence of antagonist, time dependant
Protocol: (§1) Cell cultures of various commercial tumour cell lines stated in table 13 were used. [table] […] The number of cells was quantified using a Coulter counter. […] The culture plates were grown in the presence of increasing concentrations of non-peptide NK1 receptor antagonists. To obtain the staining in the proliferation assays, 20 μl of MTS were added to each one of the wells of the cell culture plates 90 minutes before reading the samples in a multiscan spectrophotometer (TECAN Spectra classic, Barcelona, Spain) at 492 nm (assay wavelength) and 690 nm (reference wavelength). The different doses were tested in duplicate and each experiment was performed in triplicate. The antagonist Aprepitant was used at the following concentrations: 1 nanomolar -nM-, 5 nanomolar -nM- and 7 nanomolar -nM-. […] As proliferation control, the cells were grown in the absence of said antagonist. This is expressed in FIGS. 1 to 10.

Human glioma GAMG = test: MTS cell proliferation, nanomolar antagonist, GAMG; type: cell-based; conditions: Aprepitant 1, 5 and 7 nM, vs cells grown in the absence of antagonist, time dependant
Protocol: as §1

Human lung cancer A-427 = test: MTS cell proliferation, nanomolar antagonist, A-427; type: cell-based; conditions: Aprepitant 1, 5 and 7 nM, vs cells grown in the absence of antagonist, time dependant
Protocol: as §1

[2] = tested on: Human adenocolon cancer SW-403; test: MTS cell proliferation, nanomolar antagonist, SW-403; type: cell-based; conditions: Aprepitant 1, 5 and 7 nM, vs cells grown in the absence of antagonist, time dependant
Protocol: as §1

[3] = tested on: human glioma; reference GAMG; test: Glioma GAMG tumours implanted s.c. in nude mice, Aprepitant alone; type: in vivo
Protocol: (§2) Immunocompromised female mice, 5-6 weeks of age were used, nu/nu Balb/c nude mice, provided by Harlan Iberica Barcelona (Spain). They were kept at 24° C. and in sterile conditions with food and water “ad libitum”. They were injected with 2×10^7 tumour cells, corresponding to cancer (human lung cancer, reference HCC-44 supplied by DSMZ) in 200 μl of PBS subcutaneous route. The tumour size was measured and the mice were evaluated for their state of health and weight daily. The mice were randomized in nine groups when the tumours reached a volume of 75 mm^3. One of the groups was treated with 200 μl of placebo (control group) and the eight remaining groups with doses of 10 (group 1), 20 (group 2), 30 (group 3), 40 (group 4), 50 (group 5), 60 (group 6), 70 (group 7) and 80 (group 8) mg per kilogram of weight and day of the NK1 receptor antagonist Aprepitant. 3 animals were treated per group, during 28 days. All the mice were sacrificed at the end of the experiment.
(§3) Immunocompromised female mice, 5-6 weeks of age were used, in the same conditions as explained in example 1. They were injected with 2×10^7 tumour cells, corresponding to a glial cell line tumour of the central nervous system human (human glioma; reference GAMG; supplied by DSMZ) in 200 μl of PBS by subcutaneous route. The tumour size was measured and the mice were evaluated for their state of health and weight daily. The mice were randomized in nine groups when the tumours reached a volume of 75 mm^3. One of the groups was treated with 200 μl of placebo (control group) and the eight remaining groups with doses of 10 (group 1), 20 (group 2), 30 (group 3), 40 (group 4), 50 (group 5), 60 (group 6), 70 (group 7) and 80 (group 8) mg per kilogram of weight and day of the NK1 receptor antagonist Aprepitant. 3 animals were treated per group, during 28 days. All the mice were sacrificed at the end of the experiment.

brain tumours = conditions: Aprepitant 3 mg per kilogram of weight and day; mice; Lewis et al. 2013; cited from earlier work
[4] = tested on: Human B cell lymphoma BC-1; test: MTS cell proliferation, nanomolar antagonist, BC-1; type: cell-based; conditions: Aprepitant 1, 5 and 7 nM, vs cells grown in the absence of antagonist, time dependant
Protocol: as §1

[5] = tested on: Human fibrosarcoma HT-1080; test: MTS cell proliferation, nanomolar antagonist, HT-1080; type: cell-based; conditions: Aprepitant 1, 5 and 7 nM, vs cells grown in the absence of antagonist, time dependant
Protocol: as §1

[6] = tested on: human neuroblastoma; reference KELLY; test: Neuroblastoma KELLY tumours implanted s.c. in nude mice, Aprepitant alone; type: in vivo
Protocol: as §2
as §3, with “an embryonic” for “a glial cell line”, “tumour” for “tumour of the central nervous system human”, “neuroblastoma;” for “glioma;”, “KELLY;” for “GAMG;”

[7] = Aprepitant 10 mg/kg/day, 7 days
[8] = Aprepitant 10 mg/kg/day, 14 days
[9] = Aprepitant 10 mg/kg/day, 21 days
[10] = Aprepitant 10 mg/kg/day, 28 days
[11] = Aprepitant 20 mg/kg/day, 7 days
[12] = Aprepitant 20 mg/kg/day, 14 days
[13] = Aprepitant 20 mg/kg/day, 21 days
[14] = Aprepitant 20 mg/kg/day, 28 days
[15] = Aprepitant 30 mg/kg/day, 7 days
[16] = Aprepitant 30 mg/kg/day, 14 days
[17] = Aprepitant 30 mg/kg/day, 21 days
[18] = Aprepitant 30 mg/kg/day, 28 days
[19] = Aprepitant 40 mg/kg/day, 7 days
[20] = Aprepitant 40 mg/kg/day, 14 days
[21] = Aprepitant 40 mg/kg/day, 21 days
[22] = Aprepitant 40 mg/kg/day, 28 days
[23] = Aprepitant 50 mg/kg/day, 7 days
[24] = Aprepitant 50 mg/kg/day, 14 days
[25] = Aprepitant 50 mg/kg/day, 21 days
[26] = Aprepitant 50 mg/kg/day, 28 days
[27] = Aprepitant 60 mg/kg/day, 7 days
[28] = Aprepitant 60 mg/kg/day, 14 days
[29] = Aprepitant 60 mg/kg/day, 21 days
[30] = Aprepitant 60 mg/kg/day, 28 days
[31] = Aprepitant 70 mg/kg/day, 7 days
[32] = Aprepitant 70 mg/kg/day, 14 days
[33] = Aprepitant 70 mg/kg/day, 21 days
[34] = Aprepitant 70 mg/kg/day, 28 days
[35] = Aprepitant 80 mg/kg/day, 7 days
[36] = Aprepitant 80 mg/kg/day, 14 days
[37] = Aprepitant 80 mg/kg/day, 21 days
[38] = Aprepitant 80 mg/kg/day, 28 days

C[C@@H](O[C@H]1OCCN(Cc2n[nH]c(=O)[nH]2)[C@H]1c1ccc(F)cc1)c1cc(C(F)(F)F)cc(C(F)(F)F)c1 [Aprepitant]
Proliferation of tumour cells (MTS) [1]: increase was observed of proliferation
Proliferation of tumour cells (MTS) (Human glioma GAMG): increase was observed of proliferation
Proliferation of tumour cells (MTS) (Human lung cancer A-427): increase was observed of proliferation
Proliferation of tumour cells (MTS) [2]: increase was observed of proliferation
Tumour size (mean volume of the tumour) [3, 7]: 205 ± 3 cubic millimeters
Tumour size (mean volume of the tumour) [3, 8]: 185 ± 6 cubic millimeters
Tumour size (mean volume of the tumour) [3, 9]: 170 ± 7 cubic millimeters
Tumour size (mean volume of the tumour) [3, 10]: 155 ± 4 cubic millimeters
Tumour size (mean volume of the tumour) [3, 11]: 190 ± 4 cubic millimeters
Tumour size (mean volume of the tumour) [3, 12]: 160 ± 7 cubic millimeters
Tumour size (mean volume of the tumour) [3, 13]: 150 ± 6 cubic millimeters
Tumour size (mean volume of the tumour) [3, 14]: 125 ± 5 cubic millimeters
Tumour size (mean volume of the tumour) [3, 15]: 160 ± 4 cubic millimeters
Tumour size (mean volume of the tumour) [3, 16]: 145 ± 7 cubic millimeters
Tumour size (mean volume of the tumour) [3, 17]: 120 ± 6 cubic millimeters
Tumour size (mean volume of the tumour) [3, 18]: 105 ± 4 cubic millimeters
Tumour size (mean volume of the tumour) [3, 19]: 155 ± 6 cubic millimeters
Tumour size (mean volume of the tumour) [3, 20]: 125 ± 5 cubic millimeters
Tumour size (mean volume of the tumour) [3, 21]: 110 ± 5 cubic millimeters
Tumour size (mean volume of the tumour) [3, 22]: 90 ± 9 cubic millimeters
Tumour size (mean volume of the tumour) [3, 23]: 125 ± 5 cubic millimeters
Tumour size (mean volume of the tumour) [3, 24]: 110 ± 5 cubic millimeters
Tumour size (mean volume of the tumour) [3, 25]: 100 ± 5 cubic millimeters
Tumour size (mean volume of the tumour) [3, 26]: 80 ± 8 cubic millimeters
Tumour size (mean volume of the tumour) [3, 27]: 95 ± 5 cubic millimeters
Tumour size (mean volume of the tumour) [3, 28]: 85 ± 6 cubic millimeters
Tumour size (mean volume of the tumour) [3, 29]: 60 ± 6 cubic millimeters
Tumour size (mean volume of the tumour) [3, 30]: 50 ± 7 cubic millimeters
Tumour size (mean volume of the tumour) [3, 31]: 75 ± 6 cubic millimeters
Tumour size (mean volume of the tumour) [3, 32]: 60 ± 5 cubic millimeters
Tumour size (mean volume of the tumour) [3, 33]: 55 ± 5 cubic millimeters
Tumour size (mean volume of the tumour) [3, 34]: 35 ± 8 cubic millimeters
Tumour size (mean volume of the tumour) [3, 35]: 60 ± 3 cubic millimeters
Tumour size (mean volume of the tumour) [3, 36]: 45 ± 6 cubic millimeters
Tumour size (mean volume of the tumour) [3, 37]: 25 ± 7 cubic millimeters
Tumour size (mean volume of the tumour) [3, 38]: 15 ± 10 cubic millimeters
Reduction in brain tumour size (brain tumours): does not cause a reduction in brain tumour sizes; also recorded: does not produce reduction in the size of brain tumours
Proliferation of tumour cells (MTS) [4]: increase was observed of proliferation
Proliferation of tumour cells (MTS) [5]: increase was observed of proliferation
Tumour size (mean volume of the tumour) [6, 7]: 180 ± 4 cubic millimeters
Tumour size (mean volume of the tumour) [6, 8]: 165 ± 6 cubic millimeters
Tumour size (mean volume of the tumour) [6, 9]: 140 ± 5 cubic millimeters
Tumour size (mean volume of the tumour) [6, 10]: 120 ± 2 cubic millimeters
Tumour size (mean volume of the tumour) [6, 11]: 175 ± 7 cubic millimeters
Tumour size (mean volume of the tumour) [6, 12]: 155 ± 7 cubic millimeters
Tumour size (mean volume of the tumour) [6, 13]: 130 ± 4 cubic millimeters
Tumour size (mean volume of the tumour) [6, 14]: 105 ± 4 cubic millimeters
Tumour size (mean volume of the tumour) [6, 15]: 160 ± 3 cubic millimeters
Tumour size (mean volume of the tumour) [6, 16]: 145 ± 3 cubic millimeters
Tumour size (mean volume of the tumour) [6, 17]: 115 ± 3 cubic millimeters
Tumour size (mean volume of the tumour) [6, 18]: 90 ± 6 cubic millimeters
Tumour size (mean volume of the tumour) [6, 19]: 155 ± 6 cubic millimeters
Tumour size (mean volume of the tumour) [6, 20]: 130 ± 6 cubic millimeters
Tumour size (mean volume of the tumour) [6, 21]: 105 ± 7 cubic millimeters
Tumour size (mean volume of the tumour) [6, 22]: 75 ± 8 cubic millimeters
Tumour size (mean volume of the tumour) [6, 23]: 140 ± 4 cubic millimeters
Tumour size (mean volume of the tumour) [6, 24]: 110 ± 5 cubic millimeters
Tumour size (mean volume of the tumour) [6, 25]: 95 ± 7 cubic millimeters
Tumour size (mean volume of the tumour) [6, 26]: 60 ± 5 cubic millimeters
Tumour size (mean volume of the tumour) [6, 27]: 130 ± 5 cubic millimeters
Tumour size (mean volume of the tumour) [6, 28]: 115 ± 7 cubic millimeters
Tumour size (mean volume of the tumour) [6, 29]: 85 ± 3 cubic millimeters
Tumour size (mean volume of the tumour) [6, 30]: 55 ± 9 cubic millimeters
Tumour size (mean volume of the tumour) [6, 31]: 120 ± 6 cubic millimeters
Tumour size (mean volume of the tumour) [6, 32]: 95 ± 8 cubic millimeters
Tumour size (mean volume of the tumour) [6, 33]: 65 ± 6 cubic millimeters
Tumour size (mean volume of the tumour) [6, 34]: 40 ± 5 cubic millimeters
Tumour size (mean volume of the tumour) [6, 35]: 105 ± 7 cubic millimeters
Tumour size (mean volume of the tumour) [6, 36]: 85 ± 6 cubic millimeters
Tumour size (mean volume of the tumour) [6, 37]: 45 ± 5 cubic millimeters
Tumour size (mean volume of the tumour) [6, 38]: 25 ± 6 cubic millimeters
